# According to PubChem BioAssay AID1963858 (Molecular Pharmacology Branch, DTP, NCI, 2024):
# Where “and” joins values, the source holds several entries; their conditions need not be identical. Equal values may be shown once.
# Tested on: HOP-62 multicell spheroids with HUVEC/MSC, viability
# Experiment: Anticancer human tumor HOP-62 cell line growth inhibition [KRAS2];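 also: viability read after a week of compound exposure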;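 as to viability, T/C: 100% = DMSO vehicle-treated spheroids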
# Conditions: for viability, T/C: stronger effect = lower value
# From the text: Multicellular complex tumor spheroid response to RAS pathway inhibitors in combination with a targeted agents in patient-derived cell lines with oncogenic KRAS variants from multiple cancer types
# A high-throughput screen of multi-cell type tumor spheroids was designed to identify active combinations of targeted small molecules and KRAS pathway inhibitors. Complex spheroids include a stromal component modeled by human endothelial cells (HUVEC) and fibroblasts modeled by human mesenchymal stem cells (MSCs). The concentration ranges selected for each drug and investigational agent were based upon clinically achievable concentrations if the clinical Cmax of the agent was known.
# Compounds. The drugs and investigational agents: BI-3406 (NSC825286), BAY-293 (NSC824723), batoprotafib (TNO155; NSC825523), sotorasib (AMG 510; NSC818433), MRTX1257 (NSC819558), elimusertib (BAY 1895344; NSC800525), molibresib (GSK525762; NSC774829), temuterkib (LY3214996; NSC803410), venetoclax (NSC766270), alisertib (NSC759677), olaparib (NSC753686), talazoparib (NSC767125), erdafitinib (NSC781556), ipatasertib (NSC767898), cabozantinib (NSC761068), nintedanib (NSC756659), abemaciclib (NSC768073), docetaxel (NSC628503), trametinib (NSC758246), and sapanisertib (NSC764658) were obtained from the National Cancer Institute (NCI) Developmental Therapeutics Program Chemical Repository. The FDA-approved anticancer drug set is available from the Developmental Therapeutics Program. […] The stock solutions were prepared in dimethyl sulfoxide (DMSO, Sigma-Aldrich, St. Louis, MO, cat. D2650) at 800-fold the tested concentration and stored at -70 degrees C prior to their use. All drugs and investigational agents were tested over a range starting from a high concentration at or near the clinical Cmax and decreasing in half-log increments. If the clinical Cmax for an agent had not been determined, the highest concentration tested was 10 microM.
# Cell Culture. All cells were maintained in an incubator at 37 degrees C and 5% CO2 with 95% humidity. The PDC lines were cultured according to standard operating procedures established by the NCI PDMR (https://pdmr.cancer.gov/sops/default.htm). Briefly, all PDCs were thawed and cultured in Matrigel-coated flasks prepared with a working solution of 1X Ham's F-12 nutrient mix, without supplementation (Invitrogen, Waltham, MA, cat. 11765054), 100 U/mL penicillin-streptomycin (Invitrogen, cat. 15140122), and 2.5% Matrigel (Corning Inc., Corning, NY, cat. 354248) for the first three passages. All PDCs were cultured in complete DMEM/F-12 media containing advanced DMEM/F-12 (Invitrogen, cat. 12634028), 4.9% defined fetal bovine serum, heat inactivated (HyClone Laboratories Inc., Logan, UT, cat. SH30070.03HI), 389 ng/mL hydrocortisone (Sigma-Aldrich, cat. H4001), 9.7 ng/mL human EGF recombinant protein (Invitrogen, cat. PHG0313), 23.4 microg/mL adenine (Sigma-Aldrich, cat. A2786), 97.3 U/mL penicillin-streptomycin (Invitrogen, cat. 15140122), 1.9 mM L-glutamine (Invitrogen, cat. 25030081), and 9.7 microM Y-27632 dihydrochloride (Tocris Bioscience, Bristol, United Kingdom, cat. 1254). The PDCs were cultured in complete DMEM/F12 media without 9.7 microM Y-27632 dihydrochloride for at least two passages prior to the screen. The established cell line HOP-62 was cultured in RPMI 1640 medium, HEPES (Invitrogen, cat. 22400105) with 10% defined fetal bovine serum (HyClone Laboratories Inc., cat. SH30070.03) and 2 mM L-glutamine (Invitrogen, cat. 25030081). The pooled donor HUVEC were cultured in endothelial cell growth medium 2 (PromoCell, Heidelberg, Germany, cat. C-22011) and the hMSC were cultured in mesenchymal stem cell growth medium 2 (PromoCell, cat. C-28009). For all experiments, HUVEC and hMSC were used at passages </=5, while the malignant cell lines were used at passages </=15. […]
# [1] = curve of first compound, second compound 0.1 µM
# [2] = curve of first compound, second compound 0.316 µM
# [3] = curve of first compound, second compound 1 µM
# [4] = curve of first compound, second compound 3.16 µM
# [5] = curve of first compound, second compound 10 µM
# [6] = second compound 0.1 µM, first compound 0.0316 µM
# [7] = second compound 0.1 µM, first compound 0.1 µM
# [8] = second compound 0.1 µM, first compound 0.316 µM
# [9] = second compound 0.1 µM, first compound 1 µM
# [10] = second compound 0.1 µM, first compound 3.16 µM
# [11] = second compound 0.1 µM, first compound 10 µM
# [12] = second compound 0.316 µM, first compound 0.0316 µM
# [13] = second compound 0.316 µM, first compound 0.1 µM
# [14] = second compound 0.316 µM, first compound 0.316 µM
# [15] = second compound 0.316 µM, first compound 1 µM
# [16] = second compound 0.316 µM, first compound 3.16 µM
# [17] = second compound 0.316 µM, first compound 10 µM
# [18] = second compound 1 µM, first compound 0.0316 µM
# [19] = second compound 1 µM, first compound 0.1 µM
# [20] = second compound 1 µM, first compound 0.316 µM
# [21] = second compound 1 µM, first compound 1 µM
# [22] = second compound 1 µM, first compound 3.16 µM
# [23] = second compound 1 µM, first compound 10 µM
# [24] = second compound 3.16 µM, first compound 0.0316 µM
# [25] = second compound 3.16 µM, first compound 0.1 µM
# [26] = second compound 3.16 µM, first compound 0.316 µM
# [27] = second compound 3.16 µM, first compound 1 µM
# [28] = second compound 3.16 µM, first compound 3.16 µM
# [29] = second compound 3.16 µM, first compound 10 µM
# [30] = second compound 10 µM, first compound 0.0316 µM
# [31] = second compound 10 µM, first compound 0.1 µM
# [32] = second compound 10 µM, first compound 0.316 µM
# [33] = second compound 10 µM, first compound 1 µM
# [34] = second compound 10 µM, first compound 3.16 µM
# [35] = second compound 10 µM, first compound 10 µM
Compound,IC50 [1] [µM],IC50 [2] [µM],IC50 [3] [µM],IC50 [4] [µM],IC50 [5] [µM],"viability, T/C [6] [%]","viability, T/C [7] [%]","viability, T/C [8] [%]","viability, T/C [9] [%]","viability, T/C [10] [%]","viability, T/C [11] [%]","viability, T/C [12] [%]","viability, T/C [13] [%]","viability, T/C [14] [%]","viability, T/C [15] [%]","viability, T/C [16] [%]","viability, T/C [17] [%]","viability, T/C [18] [%]","viability, T/C [19] [%]","viability, T/C [20] [%]",further results
CC1OCC2(CCN(c3cnc(Sc4ccnc(N)c4Cl)c(N)n3)CC2)C1N (configuration not stated),–,–,–,–,–,–,–,–,–,–,–,–,–,–,–,–,–,–,–,–,"viability, T/C (compound 0.0316 µM): 103% (2×) and 77%; viability, T/C (compound 0.1 µM): 92.2% [middle of 19 runs]; IC50 (compound alone, run of 07/12/2021): 2.29 µM [middle of 6 runs]; IC50 (curve of compound): > 10 µM and 3.82 µM and 9.82 µM"
CCNC(=O)CC1N=C(c2ccc(Cl)cc2)c2cc(OC)ccc2-n2c(C)nnc21 (configuration not stated) + CNCc1ccccc1-c1csc(C(C)Nc2nc(C)nc3cc(OC)c(OC)cc23)c1,0.438,0.245,0.136,< 0.0316,< 0.0316,103,74.4,52.3,43.1,37.3,35.1,92.3,72,44.7,30.9,33.6,32.6,86,54.3,38.2,"viability, T/C [21]: 29.7%; viability, T/C [22]: 28.1%; viability, T/C [23]: 28.6%; viability, T/C [24]: 0.15%; viability, T/C [25]: 0.21%; viability, T/C [26]: 0.07%; viability, T/C [27]: 0.06%; viability, T/C [28]: 0.06%; viability, T/C [29]: 0.13%; viability, T/C [30]: 0.1%; viability, T/C [31]: 0.09%; viability, T/C [32]: 0.1%; viability, T/C [33]: 0.09%; viability, T/C [34]: 0.23%; viability, T/C [35]: 0.17%"
C=CC(=O)N1CCN(c2nc(=O)n(-c3c(C)ccnc3C(C)C)c3nc(-c4c(O)cccc4F)c(F)cc23)C(C)C1 (configuration not stated),–,–,–,–,–,–,–,–,–,–,–,–,–,–,–,–,–,–,–,–,"viability, T/C (compound 3.16 µM): 65.2% [middle of 17 runs]; IC50 (compound alone, run of 07/19/2021): > 10 µM and 4.34 µM; IC50 (compound alone, run of 07/26/2021): 8.23 µM [middle of 5 runs]"
CC1(C)CCC(CN2CCN(c3ccc(C(=O)NS(=O)(=O)c4ccc(NCC5CCOCC5)c([N+](=O)[O-])c4)c(Oc4cnc5[nH]ccc5c4)c3)CC2)=C(c2ccc(Cl)cc2)C1 + CNCc1ccccc1-c1csc(C(C)Nc2nc(C)nc3cc(OC)c(OC)cc23)c1,5.71,4.57,3.38,< 0.0316,< 0.0316,92.1,89.5,82.5,95.3,71.6,29.5,81.2,77,76.5,81.6,61.8,24.9,90.1,76.2,67.8,"viability, T/C [21]: 73.1%; viability, T/C [22]: 54%; viability, T/C [23]: 14.9%; viability, T/C [24]: 1.65%; viability, T/C [25]: 25.9%; viability, T/C [26]: 17.9%; viability, T/C [27]: 40.3%; viability, T/C [28]: 13.5%; viability, T/C [29]: 1.45%; viability, T/C [30]: 0.12%; viability, T/C [31]: 0.16%; viability, T/C [32]: 0.16%; viability, T/C [33]: 0.18%; viability, T/C [34]: 0.15%; viability, T/C [35]: 0.22%"
CC(C)NCC(C(=O)N1CCN(c2ncnc3c2C(C)CC3O)CC1)c1ccc(Cl)cc1 (configuration not stated) + CC1OCC2(CCN(c3cnc(Sc4ccnc(N)c4Cl)c(N)n3)CC2)C1N,0.389,0.235,0.0521,< 0.0316,< 0.0316,88.7,81.9,53.5,27.6,11.3,7.62,65.7,66.2,43.4,21.7,8.04,5.81,55.9,42.3,20.5,"viability, T/C [21]: 7.92%; viability, T/C [22]: 6.64%; viability, T/C [23]: 4.61%; viability, T/C [24]: 37.6%; viability, T/C [25]: 27.2%; viability, T/C [26]: 13%; viability, T/C [27]: 7.62%; viability, T/C [28]: 4.7%; viability, T/C [29]: 3.86%; viability, T/C [30]: 25.7%; viability, T/C [31]: 20.4%; viability, T/C [32]: 14.5%; viability, T/C [33]: 7.49%; viability, T/C [34]: 4.67%; viability, T/C [35]: 3.48%"
COc1cc(Nc2ncc3c(n2)-c2ccc(Cl)cc2C(c2c(F)cccc2OC)=NC3)ccc1C(=O)O + CC1OCC2(CCN(c3cnc(Sc4ccnc(N)c4Cl)c(N)n3)CC2)C1N,0.183,0.0728,< 0.0316,< 0.0316,< 0.0316,61.5,53.9,45.7,39,26.9,20.1,56,47.8,38.5,31.3,22,16.3,34.6,29.7,27.1,"viability, T/C [21]: 26.1%; viability, T/C [22]: 21.1%; viability, T/C [23]: 15.4%; viability, T/C [24]: 21.9%; viability, T/C [25]: 18.9%; viability, T/C [26]: 22.2%; viability, T/C [27]: 21.7%; viability, T/C [28]: 14.7%; viability, T/C [29]: 11.4%; viability, T/C [30]: 22.7%; viability, T/C [31]: 17.1%; viability, T/C [32]: 18.4%; viability, T/C [33]: 17.4%; viability, T/C [34]: 16.2%; viability, T/C [35]: 10.7%"
